{"source": "ChEMBL document CHEMBL1152774", "about": "“Inhibition of Trypanosoma brucei glucose-6-phosphate dehydrogenase by human steroids and their effects on the viability of cultured parasites” (Bioorg Med Chem, 2009)", "key": {"[1]": {"molecular_target": "T1, Glucose-6-phosphate 1-dehydrogenase (Trypanosoma brucei, UniProt Q9GRG7)", "T1 sequence (Q9GRG7 whole entry)": "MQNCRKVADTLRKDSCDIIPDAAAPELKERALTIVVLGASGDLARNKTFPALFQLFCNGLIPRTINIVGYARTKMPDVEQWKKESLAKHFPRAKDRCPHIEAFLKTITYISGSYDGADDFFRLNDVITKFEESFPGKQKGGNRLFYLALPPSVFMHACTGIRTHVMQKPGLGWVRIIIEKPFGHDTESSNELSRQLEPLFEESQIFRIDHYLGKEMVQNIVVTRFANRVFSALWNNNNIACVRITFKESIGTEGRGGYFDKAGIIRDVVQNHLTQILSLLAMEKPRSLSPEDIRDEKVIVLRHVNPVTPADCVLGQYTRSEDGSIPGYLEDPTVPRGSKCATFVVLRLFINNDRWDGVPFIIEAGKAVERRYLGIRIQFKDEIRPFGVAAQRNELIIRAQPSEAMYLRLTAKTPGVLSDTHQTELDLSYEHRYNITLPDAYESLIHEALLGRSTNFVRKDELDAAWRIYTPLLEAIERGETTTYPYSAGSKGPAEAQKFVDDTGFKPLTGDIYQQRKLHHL", "experiment": "Inhibition of Trypanosoma brucei G6PDH using glucose-6-phosphate as substrate by Lineweaver-Burke plot"}, "[2]": {"molecular_target": "T1, Glucose-6-phosphate 1-dehydrogenase", "experiment": "Inhibition of Trypanosoma brucei G6PDH using NADP as substrate by Lineweaver-Burke plot"}, "[3]": {"molecular_target": "T2, Glucose-6-phosphate 1-dehydrogenase (Homo sapiens, UniProt P11413)", "T2 sequence (P11413 whole entry)": "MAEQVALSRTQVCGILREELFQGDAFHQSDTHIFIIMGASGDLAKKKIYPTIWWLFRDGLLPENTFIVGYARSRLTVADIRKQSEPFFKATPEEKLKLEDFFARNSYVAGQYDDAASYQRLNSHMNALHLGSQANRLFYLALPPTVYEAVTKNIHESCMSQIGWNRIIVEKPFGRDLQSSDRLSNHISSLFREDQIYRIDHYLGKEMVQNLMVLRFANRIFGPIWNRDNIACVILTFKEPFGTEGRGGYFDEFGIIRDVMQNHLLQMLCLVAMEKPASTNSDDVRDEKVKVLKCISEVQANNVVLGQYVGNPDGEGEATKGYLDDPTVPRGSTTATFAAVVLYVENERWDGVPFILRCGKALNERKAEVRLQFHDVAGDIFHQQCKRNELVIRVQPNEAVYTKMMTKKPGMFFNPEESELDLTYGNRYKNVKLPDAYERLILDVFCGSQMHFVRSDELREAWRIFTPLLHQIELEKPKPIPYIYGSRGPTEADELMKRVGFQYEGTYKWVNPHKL", "experiment": "Inhibition of human G6PDH using glucose-6-phosphate as substrate by Lineweaver-Burke plot"}, "[4]": {"molecular_target": "T2, Glucose-6-phosphate 1-dehydrogenase", "experiment": "Inhibition of human G6PDH using NADP as substrate by Lineweaver-Burke plot"}, "Trypanosoma brucei": {"system": "Trypanosoma brucei", "experiment": "Trypanocidal activity against Trypanosoma brucei 427 bloodstream form after 48 hrs by MTS assay", "type": "functional", "details": "Trypanosoma brucei, 427, 48 h; read-out: LD50 (the source's name)"}, "Leishmania mexicana": {"system": "Leishmania mexicana", "experiment": "Antileishmanial activity against Leishmania mexicana early-metacyclic promastigotes up to 96 uM after 48 hrs by MTS assay", "type": "functional, organism-based"}}, "note": "pKi: −log10 of the molar value. The source made the active and inactive calls. The calls are words filed in the database; no cut-off is given here.", "data": [{"compound": "C[C@]12CC[C@H](O)CC1=CC[C@@H]1[C@@H]2CC[C@]2(C)C(=O)CC[C@@H]12", "note": "[PRASTERONE]", "values": [{"measurement": "pKi", "setting": "[1]", "value": 5.77}, {"measurement": "pKi", "setting": "[2]", "value": 5.96}, {"measurement": "pKi", "setting": "[3]", "value": 5.05}, {"measurement": "pKi", "setting": "[4]", "value": 5.21}, {"measurement": "LC50", "setting": "Trypanosoma brucei", "value": 43.8, "unit": "µM"}, {"measurement": "Activity", "setting": "Leishmania mexicana", "value": "inactive"}]}, {"compound": "C[C@]12CC[C@H](O)C[C@@H]1CC[C@@H]1[C@@H]2CC[C@]2(C)C(=O)CC[C@@H]12", "note": "[EPIANDROSTERONE]", "values": [{"measurement": "pKi", "setting": "[1]", "value": 6.31}, {"measurement": "pKi", "setting": "[2]", "value": 6.34}, {"measurement": "pKi", "setting": "[3]", "value": 5.47}, {"measurement": "pKi", "setting": "[4]", "value": 5.52}, {"measurement": "LC50", "setting": "Trypanosoma brucei", "value": 24.5, "unit": "µM"}, {"measurement": "Activity", "setting": "Leishmania mexicana", "value": "inactive"}]}]}
